In US5250540A, “Aminomethyl-substituted 2,3-dihydropyrano[2,3-b]pyridines and their use in medicaments” (Bayer Aktiengesellschaft, priority 1991, dated 1993):
Counter-ions that a name gives are not always drawn.

Target: 5-HT1-receptor (5-hydroxytryptamine receptors of subtype 1)
Assay: receptor binding studies using preparations of calf hippocampus membranes, radioligand 3H-serotonin
Conditions: ^3 H-serotonin as radioactively labelled ligand
Text: In Table 1 the high affinity of the compounds according to the invention for 5-hydroxytryptamine receptors of subtype 1 is exemplified. The values given relate to data obtained from receptor binding studies using preparations of calf hippocampus membranes. The radioactively labelled ligand used for this was ^3 H-serotonin.

Ki: 1 nM
Structure (SMILES): O=C1c2ccccc2S(=O)(=O)N1CCCCNCC1CCc2cccnc2O1 (stereo not shown) [Example 4, 2-N-(4-Butylsaccharinyl)-aminomethyl-2,3-dihydropyrano2,3-b]pyridine HCl salt]
